{"source": "patent US8835124B2", "about": "“Method for treating cancer with agents that bind phosphorylated CDC27” (The Nemours Foundation, priority 2011, dated 2014)", "key": {"[1]": {"test_system": "DAOY medulloblastoma cells", "assay": "Cell cycle analysis by flow cytometry after release from G1/S block", "assay_type": "cell-based, human", "details": "for G0/G1 / G2/M / S: DAOY released from G1/S block", "procedure": "DNA was stained with 100 μg/ml propidium iodide (PI) in hypotonic citrate buffer with 20 μg/ml ribonuclease A. Stained nuclei were analyzed for DNA-PI fluorescence using an Accuri C6 flow cytometer (Accuri Cytometers Inc., Ann Arbor, Mich.). Resulting DNA distributions for sub G0/G1, G0/G1, S and G2/M phase of the cell cycle were analyzed with CFlow plus software (Accuri Cytometers Inc).\nFor analysis of cell cycle profiles after mitotic block, cells were synchronized with 2 mM thymidine for 24 hours. The block was released for 3 hours and cells were arrested in prometaphase with 100 nM nocodazole for 12 hours. For G1/S arrest, cells were synchronized for 18 hours with 2 mM thymidine, released for 9 hours, followed by a second thymidine arrest for 18 hours. The block was then released in the presence of DMSO or curcumin as indicated and the cells were processed as described above.\nDNA was stained with 100 μg/ml propidium iodide (PI) in hypotonic citrate buffer with 20 μg/ml ribonuclease A. Stained nuclei were analyzed for DNA-PI fluorescence using an Accuri C6 flow cytometer (Accuri Cytometers Inc., Ann Arbor, Mich.). Resulting DNA distributions for sub G0/G1, G0/G1, S and G2/M phase of the cell cycle were analyzed with CFlow plus software (Accuri Cytometers. Inc).\nFor analysis of cell cycle profiles after mitotic block, cells were synchronized with 2 mM thymidine for 24 hours. The block was released for 3 hours and cells were arrested in prometaphase with 100 nM nocodazole for 12 hours. For G1/S arrest, cells were synchronized for 18 hours with 2 mM thymidine, released for 9 hours, followed by a second thymidine arrest for 18 hours. The block was then released in the presence of DMSO or curcumin as indicated and the cells were processed as described above. […] The data from these cell cycle studies are the mean±SEM of three independent experiments.\nAt 0, 4, 8, 12, 16 and 20 hours, cell cycle progression was analyzed by flow cytometry."}, "[2]": {"test_system": "HT1376 cells", "assay": "LDH release cytotoxicity assay", "assay_type": "cell-based", "details": "24 hours, 0, 5, 10 and 20 μM; low phosphorylated Cdc27", "method": "Lactate dehydrogenase (LDH) levels as a measure of cell death were determined using the Non-radioactive Cytotoxicity kit (Promega, Madison, Wis.) according to manufacturer's instructions. […] Cell debris was removed by centrifugation. Viable cell LDH was collected from cells lysed by freezing for 15 minutes at −70° C. followed by thawing at 37° C. The medium was collected and cleared from cell debris by centrifugation. The relative release of LDH was determined as the ratio of released LDH versus total LDH from viable cells."}}, "data": [{"smiles": "COc1cc(/C=C/C(=O)CC(=O)/C=C/c2ccc(O)c(OC)c2)ccc1O", "note": "[Curcumin, (E,E)-1,7-bis(4-hydroxy-3-methoxyphenyl)-1,6-heptadiene-3,5-dion]", "values": [{"measurement": "cells that had not re-entered G0/G1", "setting": "[1]; 20 μM curcumin, 20 hours after removal of the thymidine block", "result": 56.9, "unit": "%"}, {"measurement": "time after release at which cells reached G2/M", "setting": "[1]; DAOY released from G1/S block in the presence of 10 μM curcumin (control 8-12 hours)", "result": "12 to 16", "unit": "h"}, {"measurement": "time after release at which cells reached G2/M", "setting": "[1]; DAOY released from G1/S block in the presence of 20 μM curcumin (control 8-12 hours)", "result": "16 to 20", "unit": "h"}, {"measurement": "sub-G0/G1 signal (apoptosis)", "setting": "[1]; DAOY released from G1/S block with curcumin, up to 20 hours", "result": "no sub-G0/G1 signal, was detected"}, {"measurement": "G0/G1", "setting": "[1]; 10 μM Curcumin, 0 Hr", "result": "48.15 ± 0.32", "unit": "%"}, {"measurement": "G2/M", "setting": "[1]; 10 μM Curcumin, 0 Hr", "result": "32.96 ± 1.97", "unit": "%"}, {"measurement": "S", "setting": "[1]; 10 μM Curcumin, 0 Hr", "result": "18.89 ± 2.17", "unit": "%"}, {"measurement": "G0/G1", "setting": "[1]; 10 μM Curcumin, 4 Hr", "result": "41.92 ± 5.16", "unit": "%"}, {"measurement": "G2/M", "setting": "[1]; 10 μM Curcumin, 4 Hr", "result": "25.88 ± 3.55", "unit": "%"}, {"measurement": "S", "setting": "[1]; 10 μM Curcumin, 4 Hr", "result": "32.13 ± 2.64", "unit": "%"}, {"measurement": "G0/G1", "setting": "[1]; 10 μM Curcumin, 8 Hr", "result": "24.94 ± 4.83", "unit": "%"}, {"measurement": "G2/M", "setting": "[1]; 10 μM Curcumin, 8 Hr", "result": "35.33 ± 5.04", "unit": "%"}, {"measurement": "S", "setting": "[1]; 10 μM Curcumin, 8 Hr", "result": "39.71 ± 4.45", "unit": "%"}, {"measurement": "G0/G1", "setting": "[1]; 10 μM Curcumin, 12 Hr", "result": "32.40 ± 8.28", "unit": "%"}, {"measurement": "G2/M", "setting": "[1]; 10 μM Curcumin, 12 Hr", "result": "44.92 ± 11.40", "unit": "%"}, {"measurement": "S", "setting": "[1]; 10 μM Curcumin, 12 Hr", "result": "22.71 ± 3.49", "unit": "%"}, {"measurement": "G0/G1", "setting": "[1]; 10 μM Curcumin, 16 Hr", "result": "42.40 ± 6.35", "unit": "%"}, {"measurement": "G2/M", "setting": "[1]; 10 μM Curcumin, 16 Hr", "result": "34.85 ± 9.11", "unit": "%"}, {"measurement": "S", "setting": "[1]; 10 μM Curcumin, 16 Hr", "result": "22.75 ± 3.63", "unit": "%"}, {"measurement": "G0/G1", "setting": "[1]; 10 μM Curcumin, 20 Hr", "result": "46.46 ± 2.96", "unit": "%"}, {"measurement": "G2/M", "setting": "[1]; 10 μM Curcumin, 20 Hr", "result": "29.88 ± 3.86", "unit": "%"}, {"measurement": "S", "setting": "[1]; 10 μM Curcumin, 20 Hr", "result": "23.66 ± 4.26", "unit": "%"}, {"measurement": "G0/G1", "setting": "[1]; 20 μM Curcumin, 0 Hr", "result": "48.15 ± 0.32", "unit": "%"}, {"measurement": "G2/M", "setting": "[1]; 20 μM Curcumin, 0 Hr", "result": "32.96 ± 1.97", "unit": "%"}, {"measurement": "S", "setting": "[1]; 20 μM Curcumin, 0 Hr", "result": "18.89 ± 2.17", "unit": "%"}, {"measurement": "G0/G1", "setting": "[1]; 20 μM Curcumin, 4 Hr", "result": "40.18 ± 5.31", "unit": "%"}, {"measurement": "G2/M", "setting": "[1]; 20 μM Curcumin, 4 Hr", "result": "28.33 ± 1.56", "unit": "%"}, {"measurement": "S", "setting": "[1]; 20 μM Curcumin, 4 Hr", "result": "31.55 ± 3.94", "unit": "%"}, {"measurement": "G0/G1", "setting": "[1]; 20 μM Curcumin, 8 Hr", "result": "31.66 ± 3.64", "unit": "%"}, {"measurement": "G2/M", "setting": "[1]; 20 μM Curcumin, 8 Hr", "result": "31.58 ± 2.35", "unit": "%"}, {"measurement": "S", "setting": "[1]; 20 μM Curcumin, 8 Hr", "result": "36.76 ± 2.49", "unit": "%"}, {"measurement": "G0/G1", "setting": "[1]; 20 μM Curcumin, 12 Hr", "result": "21.69 ± 2.77", "unit": "%"}, {"measurement": "G2/M", "setting": "[1]; 20 μM Curcumin, 12 Hr", "result": "40.44 ± 3.95", "unit": "%"}, {"measurement": "S", "setting": "[1]; 20 μM Curcumin, 12 Hr", "result": "37.87 ± 3.29", "unit": "%"}, {"measurement": "G0/G1", "setting": "[1]; 20 μM Curcumin, 16 Hr", "result": "20.99 ± 2.17", "unit": "%"}, {"measurement": "G2/M", "setting": "[1]; 20 μM Curcumin, 16 Hr", "result": "48.68 ± 5.04", "unit": "%"}, {"measurement": "S", "setting": "[1]; 20 μM Curcumin, 16 Hr", "result": "30.34 ± 4.57", "unit": "%"}, {"measurement": "G0/G1", "setting": "[1]; 20 μM Curcumin, 20 Hr", "result": "27.44 ± 4.69", "unit": "%"}, {"measurement": "G2/M", "setting": "[1]; 20 μM Curcumin, 20 Hr", "result": "43.06 ± 5.04", "unit": "%"}, {"measurement": "S", "setting": "[1]; 20 μM Curcumin, 20 Hr", "result": "29.53 ± 0.59", "unit": "%"}, {"measurement": "sensitivity to curcumin-induced apoptosis (LDH release)", "setting": "[2]", "result": "almost unaffected"}]}]}
